Measurements: patent US6951868B2, “Azabicyclic-phenyl-fused-heterocyclic compounds for treatment of disease” (Pfizer Inc., priority 2001, dated 2005)

Target: T1, chimeric α7-5HT3 ion channel (UniProt P23979+P36544, M226I/T225I)
T1 construct: pore forming region of the mouse 5HT3 receptor (fusion partner, same polypeptide); expressed in transfected cells
Experiment: Cell-based FLIPR assay measuring the EC50 of α7 nAChR agonists on the chimeric α7-5HT3 receptor
Design: species or system human/mouse
Conditions: SH-EP1 cells expressing chimeric α7-5HT3 ion channel; increase in intracellular calcium (Calcium Green fluorescence, FLIPR)
Excerpt: Cell-based Assay for Measuring the EC50 of α7 nAChR Agonists
Construction and Expression of the α7-5HT3 Receptor:
The cDNA encoding the N-terminal 201 amino acids from the human α7 nAChR that contain the ligand binding domain of the ion channel was fused to the cDNA encoding the pore forming region of the mouse 5HT3 receptor as described by Eisele J L, et al., Chimaeric nicotinic-serotonergic receptor combines distinct ligand binding and channel specificities, Nature (1993), December 2;366(6454):479-83, and modified by Groppi, et al., WO 00/73431. The chimeric α7-5HT3 ion channel was inserted into pGS175 and pGS179 which contain the resistance genes for G-418 and hygromycin B, respectively. […]
To assay the activity of the α7-5HT3 ion channel, cells expressing the channel were plated into each well of either a 96 or 384 well dish (Corning #3614) and grown to confluence prior to assay. […] The activity of compounds on the chimeric α7-5HT3 ion channel was analyzed on FLIPR. […] Fluorescent emission was measured above 525 nanometers with an appropriate F-stop to maintain a maximal signal to noise ratio. Agonist activity of each compound was measured by directly adding the compound to cells expressing the chimeric α7-5HT3 ion channel and measuring the resulting increase in intracellular calcium that is caused by the agonist-induced activation of the chimeric ion channel. […]

T1 sequence (P36544+P23979 fused P36544:T225I/P36544:M226I): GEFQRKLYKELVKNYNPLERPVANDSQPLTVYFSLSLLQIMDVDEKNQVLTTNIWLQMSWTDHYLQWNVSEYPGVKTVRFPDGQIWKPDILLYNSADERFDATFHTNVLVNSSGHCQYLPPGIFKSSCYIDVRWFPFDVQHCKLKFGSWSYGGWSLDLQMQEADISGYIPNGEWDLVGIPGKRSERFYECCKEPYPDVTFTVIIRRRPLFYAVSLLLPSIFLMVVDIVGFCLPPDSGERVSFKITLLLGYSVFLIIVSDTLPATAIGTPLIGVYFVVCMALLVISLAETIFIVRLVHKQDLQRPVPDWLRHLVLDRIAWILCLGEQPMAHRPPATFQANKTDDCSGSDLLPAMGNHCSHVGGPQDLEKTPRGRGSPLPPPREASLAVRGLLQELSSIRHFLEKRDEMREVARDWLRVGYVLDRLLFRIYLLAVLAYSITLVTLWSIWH

## O=C(N[C@H]1CN2CCC1CC2)c1ccc2c(c1)OCC(COCc1ccccc1)O2.O=C(O)/C=C/C(=O)O (single isomer, unassigned) [Example 6(b)]
  Agonist activity (result in words): inactive

## Cl.O=C(N[C@H]1CN2CCC1CC2)c1ccc2c(c1)O[C@H](COc1ccccc1)CO2 [Example 12, (3R)-N-[(3R)-1-Azabicyclo[2.2.2]oct-3-yl]-3-(phenoxymethyl)-2,3-dihydro-1,4-benzodioxine-6-carboxamide Hydrochloride]
  Agonist activity (result in words): inactive
